According to PubChem BioAssay (NCI):
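Interpolation was linear, between the two tested concentrations surrounding the appropriate level; five concentrations were tested over 48 hours in 96-well plates. GI50 = concentration required for 50% inhibition of growth. TGI denotes the concentration required for complete inhibition of growth.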

Key:
Assay in all cases: DTP human tumour cell line panel, 48 h
[1] = tested on: CCRF-CEM leukemia
[2] = tested on: BT-549 breast
[3] = tested on: MCF7 breast
[4] = tested on: HT29 colon
[5] = tested on: SF-539 CNS
[6] = tested on: DU-145 prostate
[7] = tested on: SK-MEL-28 melanoma
[8] = tested on: OVCAR-4 ovarian
[9] = tested on: OVCAR-5 ovarian
[10] = tested on: SK-OV-3 ovarian

CCCC(O)c1cn(C(NC(=O)c2ccccc2)P(=O)(OCC)OCC)nn1 (configuration not stated)
TGI [1]: > 100 µM | TGI [2]: > 100 µM | TGI [3]: > 100 µM | TGI [4]: > 100 µM | TGI [5]: > 100 µM | TGI [6]: > 100 µM | TGI [7]: > 100 µM | TGI [8]: > 100 µM

COC(=O)C1C=CCON2CCc3c(n(C)c4ccccc34)C12 (configuration not stated)
TGI [1]: > 100 µM | TGI [4]: > 100 µM | TGI [5]: > 100 µM | TGI [9]: > 100 µM | TGI [7]: > 100 µM | TGI [10]: > 100 µM | TGI [8]: > 100 µM

Nc1ccccc1.[C-]#[O+].[C-]#[O+].[C-]#[O+].[C-]#[O+].[C-]#[O+].[Cr]
GI50 [1]: 2.93 µM | TGI [1]: > 10 µM | GI50 [3]: 2.43 µM | TGI [3]: > 10 µM | GI50 [4]: > 10 µM | TGI [4]: > 10 µM | GI50 [5]: 3.28 µM | TGI [5]: > 10 µM | GI50 [6]: > 10 µM | TGI [6]: > 10 µM | GI50 [9]: > 10 µM | TGI [9]: > 10 µM | GI50 [7]: 4.52 µM | TGI [7]: > 10 µM | GI50 [10]: 5.66 µM | TGI [10]: > 10 µM | GI50 [8]: 6.7 µM | TGI [8]: > 10 µM

COc1cc2oc(=O)cc(C)c2cc1O
TGI [1]: > 100 µM | TGI [2]: > 100 µM | TGI [3]: > 100 µM | TGI [4]: > 100 µM | TGI [5]: > 100 µM | TGI [6]: > 100 µM | TGI [9]: > 100 µM | TGI [7]: > 100 µM | TGI [8]: > 100 µM

CCCCCc1cc2cc3c(c(O)c2c(=O)[nH]1)C1(CCC3)C(O)=c2c(=O)c3c(=O)cc(OC)c(=O)c=3c(=O)c2=C1O (configuration not stated)
TGI [1]: > 18.7 µM | TGI [2]: 3.33 µM | TGI [3]: 2.06 µM | TGI [4]: 3.11 µM | TGI [6]: 3.34 µM | TGI [9]: 4.47 µM | TGI [7]: 3.68 µM | TGI [10]: 5.38 µM | TGI [8]: 4.44 µM

Cc1c(CCO)c(=O)n2c([nH]c3ccccc32)c1C#N
TGI [1]: > 100 µM | TGI [4]: > 100 µM | TGI [5]: > 100 µM | TGI [9]: > 100 µM | TGI [7]: > 100 µM | TGI [10]: > 100 µM | TGI [8]: > 100 µM

COC(=O)CCc1ccc2c(c1)C(=O)CC2
TGI [1]: > 100 µM | TGI [3]: > 100 µM | TGI [4]: > 100 µM | TGI [5]: > 100 µM | TGI [6]: > 100 µM | TGI [9]: > 100 µM | TGI [7]: > 100 µM | TGI [10]: > 100 µM | TGI [8]: > 100 µM

CCCCCCCCCCCCc1ccc(S(=O)(=O)O)cc1.[Zn+2]
TGI [1]: > 100 µM | TGI [3]: > 100 µM | TGI [4]: > 100 µM | TGI [5]: > 100 µM | TGI [6]: > 100 µM | TGI [9]: > 100 µM | TGI [7]: > 100 µM | TGI [10]: > 100 µM | TGI [8]: > 100 µM

COc1cc(C2SC(C)C(=O)N2c2ccc(-c3csc(NS(=O)(=O)c4ccc(Cl)c(OC)c4)n3)cc2)ccc1O (configuration not stated)
TGI [1]: > 100 µM | TGI [3]: > 100 µM | TGI [4]: > 100 µM | TGI [5]: > 100 µM | TGI [6]: > 100 µM | TGI [9]: > 100 µM | TGI [7]: > 100 µM | TGI [10]: > 100 µM | TGI [8]: 79.9 µM

CCN(CC)c1ccc(N=Nc2ccc([N+](=O)[O-])cc2OC(=O)/C=C/c2ccccc2)c(OC(=O)/C=C/c2ccccc2)c1
TGI [1]: > 100 µM | TGI [4]: > 100 µM | TGI [5]: > 27.9 µM | TGI [7]: > 100 µM | TGI [10]: > 100 µM | TGI [8]: > 100 µM

O=C(CCCCCC(=O)N1CC(CCl)c2ccc([N+](=O)[O-])cc21)N1CC(CCl)c2ccc([N+](=O)[O-])cc21 (configuration not stated)
TGI [1]: > 100 µM | TGI [2]: > 100 µM | TGI [3]: > 100 µM | TGI [5]: > 100 µM | TGI [6]: > 100 µM | TGI [9]: > 100 µM | TGI [10]: > 100 µM | TGI [8]: > 100 µM

C=C1C(=O)O[C@H]2[C@H]3O[C@@H](C[C@@H]12)[C@@]1(C)CC[C@H](O1)[C@H](C)CCC[C@H]3C
TGI [1]: 2.99 µM | TGI [2]: 2.17 µM | TGI [3]: 3.98 µM | TGI [4]: 3.04 µM | TGI [6]: 2.86 µM | TGI [9]: 3.38 µM | TGI [7]: 3.1 µM | TGI [10]: 19.5 µM | TGI [8]: 3.4 µM

Cc1c(-c2ccccc2)nn2cc(-c3ccccc3)nnc12
TGI [1]: > 100 µM | TGI [2]: 87.3 µM | TGI [4]: > 100 µM | TGI [6]: > 100 µM | TGI [9]: > 100 µM | TGI [7]: > 100 µM | TGI [10]: > 100 µM | TGI [8]: > 100 µM

O=[N+]([O-])c1ccc(C(Nc2ccccc2)P(c2ccccc2)c2ccccc2)cc1 (configuration not stated)
TGI [2]: > 100 µM | TGI [3]: > 100 µM | TGI [4]: > 100 µM | TGI [5]: > 100 µM | TGI [6]: > 100 µM | TGI [9]: > 100 µM | TGI [7]: > 100 µM | TGI [10]: > 100 µM | TGI [8]: > 100 µM

CCn1c(SC(C)C(=O)c2c(C)n(C)n(-c3ccccc3)c2=O)nc2ccccc2c1=O (configuration not stated)
TGI [1]: > 100 µM | TGI [4]: > 100 µM | TGI [5]: > 100 µM | TGI [9]: > 100 µM | TGI [7]: > 100 µM | TGI [10]: > 100 µM | TGI [8]: > 100 µM

O=C1c2ccccc2C(=O)c2c(O)c(NCCCNCCO)cc(O)c21
TGI [1]: 15.5 µM | TGI [4]: 18.7 µM | TGI [5]: 22.2 µM | TGI [9]: 24.6 µM | TGI [7]: 30.4 µM | TGI [10]: 26.1 µM | TGI [8]: 36.4 µM

CC1(C)O[C@@H](CCl)C[C@H](C#N)O1
TGI [1]: > 100 µM | TGI [4]: > 100 µM | TGI [5]: > 100 µM | TGI [9]: > 100 µM | TGI [7]: > 100 µM | TGI [10]: > 100 µM | TGI [8]: > 100 µM

COc1cc(CNc2cnc3cc(N)ccc3n2)cc(OC)c1OC
TGI [1]: > 100 µM | TGI [4]: 55.8 µM | TGI [5]: 42.4 µM | TGI [9]: > 100 µM | TGI [7]: > 100 µM | TGI [10]: 53 µM | TGI [8]: > 100 µM

COc1cc([C@@H]2c3cc4c(cc3[C@@H](Nc3ccccc3C(=O)c3ccccc3)[C@H]3COC(=O)[C@H]23)OCO4)cc(OC)c1OC
TGI [1]: > 100 µM | TGI [2]: > 100 µM | TGI [3]: > 100 µM | TGI [5]: 0.638 µM | TGI [6]: > 100 µM | TGI [9]: > 100 µM | TGI [7]: > 100 µM | TGI [10]: > 100 µM | TGI [8]: > 100 µM

CCN(CC)C(=S)Nc1ccc(-c2cc3ccc(O)cc3oc2=O)cc1
TGI [1]: > 100 µM | TGI [2]: 85 µM | TGI [4]: 30.4 µM | TGI [5]: > 100 µM | TGI [6]: > 100 µM | TGI [9]: 79.5 µM | TGI [7]: > 100 µM | TGI [10]: > 100 µM

CSCCCS/C1=C/CCCCCCCCCC1
TGI [3]: > 100 µM | TGI [4]: > 100 µM | TGI [5]: > 100 µM | TGI [6]: > 100 µM | TGI [9]: > 100 µM | TGI [7]: > 100 µM | TGI [10]: > 100 µM | TGI [8]: > 100 µM

CCOP(=O)(OCC)C(c1ccccc1)N(C(=O)NC(F)(F)F)c1cccc(F)c1 (configuration not stated)
TGI [1]: > 100 µM | TGI [3]: > 100 µM | TGI [4]: > 100 µM | TGI [5]: > 100 µM | TGI [6]: > 100 µM | TGI [7]: > 100 µM

O=C(CCCCCCCCC(=O)N1C(=O)CC(=O)N(c2ccccc2)C1=S)N1C(=O)CC(=O)N(c2ccccc2)C1=S
TGI [1]: > 100 µM | TGI [2]: > 100 µM | TGI [3]: > 100 µM | TGI [4]: > 100 µM | TGI [6]: > 100 µM | TGI [9]: > 100 µM | TGI [10]: > 100 µM | TGI [8]: > 100 µM
